Read-outs that look alike come from different tables or passages of the source.
How the values were obtained:
Format in all cases: in vitro ADME
[1] = biological target: T1, CYP1A2 (Homo sapiens, UniProt P05177); experiment: CYP1A2 inhibition in HLMs (phenacetin, cocktail, IC50 and IC50 shift)
T1 construct: pooled HLMs (0.25 mg/mL); tissue XenoTech H2630; host or cells: pooled human liver microsomes, mixed gender
T1 sequence (P05177 1-516): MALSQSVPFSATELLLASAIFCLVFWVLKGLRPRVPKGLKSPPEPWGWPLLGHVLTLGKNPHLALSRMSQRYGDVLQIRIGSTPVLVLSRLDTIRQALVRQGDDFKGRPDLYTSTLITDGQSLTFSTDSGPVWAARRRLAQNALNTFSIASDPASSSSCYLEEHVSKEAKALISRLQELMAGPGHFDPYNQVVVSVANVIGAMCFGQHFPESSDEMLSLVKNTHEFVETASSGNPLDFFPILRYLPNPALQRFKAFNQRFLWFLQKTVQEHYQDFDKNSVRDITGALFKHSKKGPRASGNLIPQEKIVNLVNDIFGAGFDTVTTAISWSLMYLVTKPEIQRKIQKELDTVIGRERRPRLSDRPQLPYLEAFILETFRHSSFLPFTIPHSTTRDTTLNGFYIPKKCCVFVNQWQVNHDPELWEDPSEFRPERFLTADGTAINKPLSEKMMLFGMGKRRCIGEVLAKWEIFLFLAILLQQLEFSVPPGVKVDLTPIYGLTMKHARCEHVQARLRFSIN
Experimental: Lignans were first dissolved in methanol. […] All microsomal incubations were performed in triplicate.

[2] = biological target: T2, UGT1A1 (Homo sapiens, UniProt P22309); experiment: UGT1A1 inhibition in HLMs (SN-38); settings: average in triplicate, read-out: IC50, UGT 1A1
T2 construct: pooled HLMs (0.25 mg/mL); tissue XenoTech H2630; host or cells: pooled human liver microsomes, mixed gender
T2 sequence (P22309 26-533): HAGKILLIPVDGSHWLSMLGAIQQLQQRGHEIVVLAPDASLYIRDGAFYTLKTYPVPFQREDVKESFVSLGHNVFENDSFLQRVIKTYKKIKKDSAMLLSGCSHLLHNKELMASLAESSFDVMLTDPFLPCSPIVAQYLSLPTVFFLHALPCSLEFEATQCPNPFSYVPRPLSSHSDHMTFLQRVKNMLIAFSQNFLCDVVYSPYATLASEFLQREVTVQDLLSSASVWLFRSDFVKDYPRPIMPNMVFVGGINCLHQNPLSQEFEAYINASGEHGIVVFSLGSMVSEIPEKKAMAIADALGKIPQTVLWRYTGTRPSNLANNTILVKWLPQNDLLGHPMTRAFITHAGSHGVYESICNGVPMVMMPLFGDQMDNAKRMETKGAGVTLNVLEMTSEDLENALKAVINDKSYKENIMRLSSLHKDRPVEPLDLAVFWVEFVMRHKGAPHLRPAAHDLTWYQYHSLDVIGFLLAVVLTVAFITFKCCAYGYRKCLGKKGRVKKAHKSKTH
Experimental: (§1) The inhibitory potential of six lignans on six UGT activities was evaluated using the previously developed cocktail method with slight modifications. […] These substrates are known to be selective for each UGT isoforms.

[3] = biological target: T3, UGT1A6 (Homo sapiens, UniProt P19224); experiment: UGT1A6 inhibition in HLMs (N-acetylserotonin); settings: average in triplicate, read-out: IC50, UGT 1A6
T3 construct: pooled HLMs (0.25 mg/mL); tissue XenoTech H2630; host or cells: pooled human liver microsomes, mixed gender
T3 sequence (P19224 27-532): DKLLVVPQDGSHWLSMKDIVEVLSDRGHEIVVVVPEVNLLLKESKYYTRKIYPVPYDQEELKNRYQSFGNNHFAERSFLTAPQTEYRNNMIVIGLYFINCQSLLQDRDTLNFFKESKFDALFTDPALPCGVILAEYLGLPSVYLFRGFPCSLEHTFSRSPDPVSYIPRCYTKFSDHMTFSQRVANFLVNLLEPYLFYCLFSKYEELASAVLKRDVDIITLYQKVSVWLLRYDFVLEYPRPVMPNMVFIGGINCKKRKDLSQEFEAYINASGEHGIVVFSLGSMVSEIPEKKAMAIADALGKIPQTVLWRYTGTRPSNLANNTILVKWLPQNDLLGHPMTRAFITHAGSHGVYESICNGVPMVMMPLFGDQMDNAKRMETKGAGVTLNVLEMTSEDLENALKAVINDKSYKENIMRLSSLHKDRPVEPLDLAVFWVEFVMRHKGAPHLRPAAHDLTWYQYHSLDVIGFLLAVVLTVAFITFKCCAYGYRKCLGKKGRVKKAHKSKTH
Experimental: as §1

[4] = biological target: T4, UGT1A9 (Homo sapiens, UniProt O60656); experiment: UGT1A9 inhibition in HLMs (mycophenolic acid); settings: average in triplicate, read-out: IC50, UGT 1A9
T4 construct: pooled HLMs (0.25 mg/mL); tissue XenoTech H2630; host or cells: pooled human liver microsomes, mixed gender
T4 sequence (O60656 26-530): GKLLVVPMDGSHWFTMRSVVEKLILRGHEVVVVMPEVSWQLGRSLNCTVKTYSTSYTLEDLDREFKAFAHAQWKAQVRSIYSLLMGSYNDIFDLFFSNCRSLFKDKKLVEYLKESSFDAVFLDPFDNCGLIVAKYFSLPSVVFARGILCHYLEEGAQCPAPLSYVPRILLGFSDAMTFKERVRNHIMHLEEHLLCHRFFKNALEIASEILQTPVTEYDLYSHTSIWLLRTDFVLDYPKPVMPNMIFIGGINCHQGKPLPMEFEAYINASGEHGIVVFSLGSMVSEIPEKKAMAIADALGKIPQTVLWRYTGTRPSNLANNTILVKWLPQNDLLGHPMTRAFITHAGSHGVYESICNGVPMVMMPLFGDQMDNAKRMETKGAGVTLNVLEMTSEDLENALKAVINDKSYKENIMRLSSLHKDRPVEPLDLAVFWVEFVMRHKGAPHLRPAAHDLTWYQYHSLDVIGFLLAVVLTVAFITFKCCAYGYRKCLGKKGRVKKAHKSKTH
Experimental: as §1

[5] = biological target: T5, UGT2B7 (Homo sapiens, UniProt P16662); experiment: UGT2B7 inhibition in HLMs (naloxone); settings: average in triplicate, read-out: IC50, UGT 2B6 (so in the source)
T5 construct: pooled HLMs (0.25 mg/mL); tissue XenoTech H2630; host or cells: pooled human liver microsomes, mixed gender
T5 sequence (P16662 24-529): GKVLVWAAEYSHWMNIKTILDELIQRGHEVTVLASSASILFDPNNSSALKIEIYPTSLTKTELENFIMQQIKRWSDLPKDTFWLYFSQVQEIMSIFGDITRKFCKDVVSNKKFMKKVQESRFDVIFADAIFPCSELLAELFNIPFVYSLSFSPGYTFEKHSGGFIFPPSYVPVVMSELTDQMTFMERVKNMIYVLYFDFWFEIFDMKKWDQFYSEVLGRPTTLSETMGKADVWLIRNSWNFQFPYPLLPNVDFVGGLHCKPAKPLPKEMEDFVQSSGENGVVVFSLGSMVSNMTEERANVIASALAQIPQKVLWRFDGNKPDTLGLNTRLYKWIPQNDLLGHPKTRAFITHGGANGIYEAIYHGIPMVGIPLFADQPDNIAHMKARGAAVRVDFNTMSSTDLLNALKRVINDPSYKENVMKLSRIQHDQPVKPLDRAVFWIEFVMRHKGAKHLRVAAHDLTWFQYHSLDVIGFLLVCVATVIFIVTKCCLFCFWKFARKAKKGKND
Experimental: as §1

[6] = HLMs, 30 min pre-incubation with NADPH generating system, read-out: IC50 TDI, CYP1A2
[7] = HLMs, reversible inhibition, no 30 min NADPH pre-incubation, read-out: IC50 RI, CYP1A2

Compound	IC50 [1, 6] [µM]	IC50 [1, 7] [µM]	IC50 [2] [µM]	IC50 [3] [µM]	IC50 [4] [µM]	IC50 [5] [µM]	IC50 ([1]; IC50 RI, CYP1A2, HLMs, reversible inhibition, no 30 min NADPH pre-incubation) [µM]	IC50 ([1]; IC50 TDI, CYP1A2, HLMs, 30 min pre-incubation with NADPH generating system) [µM]
COc1c2c(cc3c1-c1c(cc4c(c1OC)OCO4)C[C@H](C)[C@H](C)C3)OCO2 [Wuweizisu C, wuweizisu C]	22.4	25.6	> 50	> 50	> 50	> 50	–	–
COc1cc2c(c(OC)c1OC)-c1c(cc3c(c1OC)OCO3)C[C@H](C)[C@H](C)C2 [Gomisin N, gomisin N]	> 50	> 50	> 50	> 50	> 50	> 50	–	–
COc1cc2c(c(OC)c1OC)-c1c(cc3c(c1OC)OCO3)C[C@H](C)[C@](C)(O)[C@H]2OC(=O)c1ccccc1 [Gomisin C, gomisin C]	> 50	> 50	24	> 50	> 50	> 50	–	–
COc1cc2c(c(OC)c1OC)-c1c(cc(OC)c(OC)c1OC)C[C@](C)(O)[C@@H](C)C2 [Schisandrin, schisandrin]	–	–	> 50	> 50	> 50	> 50	4	> 50
